For series [1] the following is noted: human gut metagenome, 24 h, 2 µM.
The conditions of series [2]: human gut metagenome, 24 h, 2 µM. The source holds these as a separate data set.
Series [3] can be described thus: The drug is tested on Z-007 corresponding to rat gut metagenome with ENA study accession number: PRJEB37062 and ENA sample accession number: ERS12561807 for biotransformation under anaerobic condition. The drug concentrations were measured over 9 timepoints collected between 0 and 24 hours of incubation by liquid-chromatography-coupled mass spectrometry (LC–MS). Conditions: 2 µM.

Series [4] can be described thus: The drug is tested on Z-002 corresponding to rabbit gut metagenome with ENA study accession number: PRJEB37062 and ENA sample accession number: ERS12561802 for biotransformation under anaerobic condition. The drug concentrations were measured over 9 timepoints collected between 0 and 24 hours of incubation by liquid-chromatography-coupled mass spectrometry (LC–MS). Conditions: 2 µM.

Series [5] in a line: The drug is tested on Z-020 corresponding to rabbit gut metagenome with ENA study accession number: PRJEB37062 and ENA sample accession number: ERS12561819 for biotransformation under anaerobic condition. The drug concentrations were measured over 9 timepoints collected between 0 and 24 hours of incubation by liquid-chromatography-coupled mass spectrometry (LC–MS). Conditions: 2 µM.

Series [6] in a line: The drug is tested on Z-019 corresponding to rat gut metagenome with ENA study accession number: PRJEB37062 and ENA sample accession number: ERS12561818 for biotransformation under anaerobic condition. The drug concentrations were measured over 9 timepoints collected between 0 and 24 hours of incubation by liquid-chromatography-coupled mass spectrometry (LC–MS). Conditions: 2 µM.

The nature of series [7]: The drug is tested on WLS-069 corresponding to human gut metagenome with ENA study accession number: PRJEB37062 and ENA sample accession number: ERS12561748 for biotransformation under anaerobic condition. The drug concentrations were measured over 9 timepoints collected between 0 and 24 hours of incubation by liquid-chromatography-coupled mass spectrometry (LC–MS). Conditions: 2 µM.

For series [8] the following is noted: human gut metagenome, 24 h, 2 µM. The source holds these as a separate data set.
A short description of series [9]: The drug is tested on WLS-073 corresponding to human gut metagenome with ENA study accession number: PRJEB37062 and ENA sample accession number: ERS12561749 for biotransformation under anaerobic condition. The drug concentrations were measured over 9 timepoints collected between 0 and 24 hours of incubation by liquid-chromatography-coupled mass spectrometry (LC–MS). Conditions: 2 µM.

For series [10] the following is noted: human gut metagenome, 24 h, 2 µM. This is another data set of the same source.
The conditions of series [11]: human gut metagenome, 24 h, 2 µM. This is another data set of the same source.
Series [12] in a line: The drug is tested on Z-001 corresponding to mouse gut metagenome with ENA study accession number: PRJEB37062 and ENA sample accession number: ERS12561801 for biotransformation under anaerobic condition. The drug concentrations were measured over 9 timepoints collected between 0 and 24 hours of incubation by liquid-chromatography-coupled mass spectrometry (LC–MS). The following applies: 2 µM.

The conditions of series [13]: human gut metagenome, 24 h, 2 µM. The source holds these as a separate data set.
Series [14] is described as follows: The drug is tested on Z-005 corresponding to metagenome with ENA study accession number: PRJEB37062 and ENA sample accession number: ERS12561805 for biotransformation under anaerobic condition. The drug concentrations were measured over 9 timepoints collected between 0 and 24 hours of incubation by liquid-chromatography-coupled mass spectrometry (LC–MS). Conditions: 2 µM.

Series [15] in a line: The drug is tested on Z-027 corresponding to metagenome with ENA study accession number: PRJEB37062 and ENA sample accession number: ERS12561826 for biotransformation under anaerobic condition. The drug concentrations were measured over 9 timepoints collected between 0 and 24 hours of incubation by liquid-chromatography-coupled mass spectrometry (LC–MS). Conditions: 2 µM.
For series [16] the following is noted: human gut metagenome, 24 h, 2 µM. The source holds these as a separate data set.
Series [17] is described as follows: The drug is tested on WLS-007 corresponding to human gut metagenome with ENA study accession number: PRJEB37062 and ENA sample accession number: ERS12561742 for biotransformation under anaerobic condition. The drug concentrations were measured over 9 timepoints collected between 0 and 24 hours of incubation by liquid-chromatography-coupled mass spectrometry (LC–MS). The following applies: 2 µM.

The conditions of series [18]: human gut metagenome, 24 h, 2 µM. The source holds these as a separate data set.
A short description of series [19]: The drug is tested on WLS-098 corresponding to human gut metagenome with ENA study accession number: PRJEB37062 and ENA sample accession number: ERS12561754 for biotransformation under anaerobic condition. The drug concentrations were measured over 9 timepoints collected between 0 and 24 hours of incubation by liquid-chromatography-coupled mass spectrometry (LC–MS). The following applies: 2 µM.

Series [20] in a line: The drug is tested on Z-030 corresponding to mouse gut metagenome with ENA study accession number: PRJEB37062 and ENA sample accession number: ERS12561829 for biotransformation under anaerobic condition. The drug concentrations were measured over 9 timepoints collected between 0 and 24 hours of incubation by liquid-chromatography-coupled mass spectrometry (LC–MS). Conditions: 2 µM.
Note: call rule not given here.

Regarding `OCCOCCN1CCN(C2=Nc3ccccc3Sc3ccccc32)CC1` [QUETIAPINE], the “Bacterial Biotransformation” value in series [1] is given as “Compound NOT metabolized”; in series [2], “Compound NOT metabolized”; in [3], “Compound NOT metabolized”; in [4], “Compound metabolized”; in series [5] it was “Compound NOT metabolized”; in [6] it was “Compound NOT metabolized”. Also, the “Bacterial Biotransformation” value in [7] was “Compound NOT metabolized”; in series [8], “Compound metabolized”; in [9], “Compound NOT metabolized”; in [10], “Compound NOT metabolized”; in series [11] it was “Compound metabolized”; in series [12], “Compound NOT metabolized”. Further, the “Bacterial Biotransformation” value in series [13], in series [14], in series [15], in series [16], in series [17] and in series [18] was “Compound NOT metabolized” each time. Further, the “Bacterial Biotransformation” value in [19] is listed as “Compound metabolized”; in series [20], “Compound NOT metabolized”.
Consider `CCC(=O)NCC[C@@H]1CCc2ccc3c(c21)CCO3` [RAMELTEON], for which the “Bacterial Biotransformation” value in series [1] was “Compound metabolized”; in series [2] it was “Compound metabolized”; in series [3], “Compound NOT metabolized”; in series [4], “Compound metabolized”; in series [5], “Compound metabolized”; in series [6], “Compound NOT metabolized”. For the same compound, the “Bacterial Biotransformation” value in series [7] is reported as “Compound metabolized”; in [8] it was “Compound metabolized”; in [9] it was “Compound NOT metabolized”; in [10], “Compound metabolized”; in series [11] it was “Compound metabolized”; in [12] it was “Compound NOT metabolized”. In addition, the “Bacterial Biotransformation” value in [13] was “Compound NOT metabolized”; in [14], “Compound NOT metabolized”; in series [15] it was “Compound NOT metabolized”; in series [16] it was “Compound metabolized”; in [17] it was “Compound NOT metabolized”; in series [18] it was “Compound metabolized”. For the same compound, the “Bacterial Biotransformation” value is given as “Compound metabolized” in series [19] and “Compound NOT metabolized” in series [20].
For `CNC(=C[N+](=O)[O-])NCCSCc1ccc(CN(C)C)o1` [RANITIDINE], the “Bacterial Biotransformation” value is “Compound NOT metabolized” in series [1]; “Compound metabolized” in series [2]; “Compound NOT metabolized” in series [3]; “Compound metabolized” in series [4]; “Compound metabolized” in [5]; “Compound metabolized” in series [6]. Also, the “Bacterial Biotransformation” value in series [7] was “Compound metabolized”; in [8], “Compound NOT metabolized”; in series [9] it was “Compound NOT metabolized”; in series [10] it was “Compound metabolized”; in series [11], “Compound metabolized”; in series [12], “Compound metabolized”. Moreover, the “Bacterial Biotransformation” value is recorded as “Compound metabolized” in series [13]; “Compound NOT metabolized” in series [14]; “Compound NOT metabolized” in [15]; “Compound metabolized” in [16]; “Compound NOT metabolized” in [17]; “Compound NOT metabolized” in [18]. The “Bacterial Biotransformation” value in series [19] and in series [20] was “Compound NOT metabolized” throughout.
`Nc1nc2ccc(OC(F)(F)F)cc2s1` [RILUZOLE]: the “Bacterial Biotransformation” value is “Compound NOT metabolized” in series [1]; “Compound NOT metabolized” in [2]; “Compound NOT metabolized” in [3]; “Compound metabolized” in [4]; “Compound metabolized” in series [5]; “Compound NOT metabolized” in series [6]. Also, the “Bacterial Biotransformation” value in series [7], in [8], in [9], in [10], in series [11] and in [12] was “Compound metabolized” in each case. The “Bacterial Biotransformation” value in series [13] is listed as “Compound NOT metabolized”; in [14] it was “Compound metabolized”; in [15] it was “Compound NOT metabolized”; in series [16] it was “Compound metabolized”; in [17], “Compound metabolized”; in [18], “Compound metabolized”. For the same compound, the “Bacterial Biotransformation” value was “Compound metabolized” in [19] and “Compound NOT metabolized” in series [20].
In the case of `CC(C)c1nc(CN(C)C(=O)N[C@H](C(=O)N[C@@H](Cc2ccccc2)C[C@H](O)[C@H](Cc2ccccc2)NC(=O)OCc2cncs2)C(C)C)cs1` [RITONAVIR], the “Bacterial Biotransformation” value in [1] is on record as “Compound NOT metabolized”; in series [2] it was “Compound NOT metabolized”; in series [3], “Compound NOT metabolized”; in [4], “Compound metabolized”; in series [5], “Compound metabolized”; in series [6] it was “Compound NOT metabolized”. The “Bacterial Biotransformation” value in series [7] is listed as “Compound metabolized”; in [8] it was “Compound metabolized”; in [9], “Compound metabolized”; in series [10], “Compound metabolized”; in [11] it was “Compound metabolized”; in series [12], “Compound NOT metabolized”. In addition, the “Bacterial Biotransformation” value in series [13] is “Compound NOT metabolized”; in series [14], “Compound metabolized”; in [15], “Compound metabolized”; in [16], “Compound metabolized”; in series [17] it was “Compound metabolized”; in series [18], “Compound metabolized”. For the same compound, the “Bacterial Biotransformation” value in series [19] is recorded as “Compound metabolized”; in series [20] it was “Compound NOT metabolized”.

For the origin of these results see ChEMBL document CHEMBL5724914, “Linking interpersonal differences in gut microbiota composition and drug biotransformation activity” (2024).
